Earlier results in patent publication US20150073057A1, “COMPOSITION AND METHOD FOR TREATMENT OF DIABETES” (BioKier, Inc., priority 2013, published 2015).

Tested on: overweight and obese human subjects

Substance: Oxyntomodulin: a gut hormone, 37 amino acid peptide co-secreted along with GLP-1 from L-cells
- reduction of energy intake: ~17%
